Laboratory results as given in ChEMBL document CHEMBL1149028, “Isolation and structure of cephalostatins 10 and 11” (1994).
Values after ≈ are worked out from the molar mass of the structure shown.

What was measured:
Type in all cases: functional
[1] = tested on: M14; assay: Growth inhibition of human M14 cells
[2] = tested on: DMS-114; assay: Growth inhibition of human DMS114 cells
[3] = Growth inhibition of human 786-O cells; settings: 786-0
[4] = tested on: A498; assay: Growth inhibition of human A498 cells
[5] = tested on: NCI-H23; assay: Growth inhibition of human NCI-H23 cells
[6] = tested on: XF498; assay: Growth inhibition of human XF498 cells
[7] = tested on: EKVX; assay: Growth inhibition of human EKVX cells
[8] = tested on: OVCAR-4; assay: Growth inhibition of human OVCAR4 cells
[9] = tested on: DMS-273; assay: Growth inhibition of human DMS273 cells
[10] = tested on: SF-268; assay: Growth inhibition of human SF268 cells
[11] = tested on: NCI-H322M; assay: Growth inhibition of human NCI-H322M cells
[12] = tested on: NCI-H226; assay: Growth inhibition of human NCI-H226 cells
[13] = tested on: U-251; assay: Growth inhibition of human U251 cells
[14] = tested on: SNB-19; assay: Growth inhibition of human SNB19 cells
[15] = tested on: CAKI-1; assay: Growth inhibition of human Caki1 cells
[16] = tested on: HT-29; assay: Growth inhibition of human HT-29 cells
[17] = tested on: ACHN; assay: Growth inhibition of human ACHN cells
[18] = tested on: K562; assay: Growth inhibition of human K562 cells
[19] = tested on: HOP-18; assay: Growth inhibition of human HOP18 cells
[20] = tested on: SF-295; assay: Growth inhibition of human SF295 cells
[21] = tested on: DLD-1; assay: Growth inhibition of human DLD1 cells
[22] = tested on: COLO 205; assay: Growth inhibition of human COLO205 cells
[23] = tested on: SNB-78; assay: Growth inhibition of human SNB78 cells
[24] = tested on: RXF 393; assay: Growth inhibition of human RXF393 cells
[25] = tested on: Malme-3M; assay: Growth inhibition of human MALME-3M cells
[26] = tested on: CCRF-CEM; assay: Growth inhibition of human CCRF-CEM cells
[27] = tested on: SF-539; assay: Growth inhibition of human SF539 cells
[28] = tested on: SK-OV-3; assay: Growth inhibition of human SKOV3 cells
[29] = tested on: MOLT-4; assay: Growth inhibition of human MOLT4 cells
[30] = tested on: HOP-92; assay: Growth inhibition of human HOP92 cells
[31] = tested on: HL-60(TB); assay: Growth inhibition of human HL-60(TB) cells
[32] = tested on: SW-620; assay: Growth inhibition of human SW620 cells
[33] = tested on: HCT-15; assay: Growth inhibition of human HCT15 cells
[34] = tested on: HCT-116; assay: Growth inhibition of human HCT116 cells
[35] = tested on: TK-10; assay: Growth inhibition of human TK10 cells
[36] = tested on: UACC-62; assay: Growth inhibition of human UACC62 cells
[37] = tested on: SN12C; assay: Growth inhibition of human SN12C cells
[38] = tested on: NCI-H522; assay: Growth inhibition of human NCI-H522 cells
[39] = tested on: OVCAR-8; assay: Growth inhibition of human OVCAR8 cells; settings: OVCAR-8, read-out: pGI50 (converted)
[40] = tested on: IGROV-1; assay: Growth inhibition of human IGROV1 cells
[41] = tested on: HCC 2998; assay: Growth inhibition of human HCC2998 cells
[42] = tested on: OVCAR-3; assay: Growth inhibition of human OVCAR-3 cells
[43] = tested on: HOP-62; assay: Growth inhibition of human HOP62 cells
[44] = tested on: NCI-H460; assay: Growth inhibition of human NCI-H460 cells
[45] = tested on: KM-20L2; assay: Growth inhibition of human KM20L2 cells
[46] = tested on: SNB-75; assay: Growth inhibition of human SNB75 cells
[47] = tested on: OVCAR-5; assay: Growth inhibition of human OVCAR5 cells
[48] = tested on: SK-MEL-2; assay: Growth inhibition of human SK-MEL-2 cells
[49] = tested on: SK-MEL-28; assay: Growth inhibition of human SK-MEL-28 cells
[50] = tested on: KM12; assay: Growth inhibition of human KM12 cells
[51] = tested on: UO-31; assay: Growth inhibition of human UO31 cells
[52] = tested on: RPMI-8226; assay: Growth inhibition of human RPMI8226 cells
[53] = Growth inhibition of human LXFL529 cells; settings: LXFL 529
[54] = tested on: SK-MEL-5; assay: Growth inhibition of human SK-MEL-5 cells
[55] = tested on: UACC-257; assay: Growth inhibition of human UACC257 cells
[56] = tested on: SR; assay: Growth inhibition of human SR cells
[57] = tested on: LOX IMVI; assay: Growth inhibition of human LOXIMVI cells
[58] = tested on: M19-MEL; assay: Growth inhibition of human M19-MEL cells
[59] = tested on: A549; assay: Growth inhibition of human A549 cells
[60] = tested on: P388; assay: Growth inhibition of mouse P388 cells; settings: read-out: ED50 (the source's name)

Q: For `C[C@@H]1[C@]2(O[C@H]3C=C4[C@@H]5CC[C@H]6Cc7nc8c(nc7C[C@]6(C)[C@H]5C[C@@H](O)[C@]4(C)[C@]31O)C[C@@H]1CC[C@H]3C4=CC[C@@H]5[C@H](C)[C@@]6(OC[C@]45C(=O)C[C@@H]3[C@@]1(C)C8)OC(C)(C)C[C@H]6O)O[C@](C)(CO)C[C@H]2O` [CEPHALOSTATIN 1], which GI50 [1] is on record?
A: 0.49 nM

Q: What about the GI50 [2] of the same molecule?
A: 0.661 nM

Q: And the GI50 [3]?
A: 0.0776 nM

Q: What about the GI50 [4] of the same molecule?
A: 0.537 nM

Q: And the GI50 [5]?
A: 0.339 nM

Q: What about the GI50 [6] of the same molecule?
A: 0.589 nM

Q: What about the GI50 [7] of the same molecule?
A: 43.6 nM

Q: And the GI50 [8]?
A: 14.1 nM

Q: What about the GI50 [9] of the same molecule?
A: 0.0525 nM

Q: And the GI50 [10]?
A: 2.19 nM

Q: What about the GI50 [11] of the same molecule?
A: 33.1 nM

Q: What about the GI50 [12] of the same molecule?
A: 3.24 nM

Q: What about the GI50 [13] of the same molecule?
A: 0.0646 nM

Q: And the GI50 [14]?
A: 1.7 nM

Q: What about the GI50 [15] of the same molecule?
A: 0.724 nM

Q: What about the GI50 [16] of the same molecule?
A: 2 nM

Q: What about the GI50 [17] of the same molecule?
A: 3.31 nM

Q: What about the GI50 [18] of the same molecule?
A: 0.427 nM

Q: What about the GI50 [19] of the same molecule?
A: 0.832 nM

Q: And the GI50 [20]?
A: 0.0437 nM

Q: And the GI50 [21]?
A: 8.51 nM

Q: And the GI50 [22]?
A: 1.7 nM

Q: And the GI50 [23]?
A: 0.794 nM

Q: And the GI50 [24]?
A: 0.0251 nM

Q: And the GI50 [25]?
A: 5.25 nM

Q: What about the GI50 [26] of the same molecule?
A: 0.251 nM

Q: And the GI50 [27]?
A: 0.0813 nM

Q: What about the GI50 [28] of the same molecule?
A: 7.08 nM

Q: What about the GI50 [29] of the same molecule?
A: 0.2 nM

Q: What about the GI50 [30] of the same molecule?
A: 0.724 nM

Q: What about the GI50 [31] of the same molecule?
A: 0.151 nM

Q: And the GI50 [32]?
A: 0.302 nM

Q: And the GI50 [33]?
A: 3.39 nM

Q: And the GI50 [34]?
A: 0.525 nM

Q: And the GI50 [35]?
A: 93.3 nM

Q: And the GI50 [36]?
A: 0.389 nM

Q: And the GI50 [37]?
A: 21.9 nM

Q: What about the GI50 [38] of the same molecule?
A: 2.4 nM

Q: And the GI50 [39]?
A: 24 nM

Q: And the GI50 [40]?
A: 2.19 nM

Q: And the GI50 [41]?
A: 60.3 nM

Q: And the GI50 [42]?
A: 30.9 nM

Q: And the GI50 [43]?
A: 0.209 nM

Q: What about the GI50 [44] of the same molecule?
A: 0.309 nM

Q: And the GI50 [45]?
A: 2 nM

Q: What about the GI50 [46] of the same molecule?
A: 0.0813 nM

Q: And the GI50 [47]?
A: 10 nM

Q: And the GI50 [48]?
A: 0.741 nM

Q: What about the GI50 [49] of the same molecule?
A: 0.955 nM

Q: What about the GI50 [50] of the same molecule?
A: 3.24 nM

Q: What about the GI50 [51] of the same molecule?
A: 4.17 nM

Q: What about the GI50 [52] of the same molecule?
A: 0.0513 nM

Q: What about the GI50 [53] of the same molecule?
A: 0.363 nM

Q: What about the GI50 [54] of the same molecule?
A: 3.47 nM

Q: And the GI50 [55]?
A: 3.71 nM

Q: What about the GI50 [56] of the same molecule?
A: 0.288 nM

Q: What about the GI50 [57] of the same molecule?
A: 0.24 nM

Q: And the GI50 [58]?
A: 47.9 nM

Q: What about the GI50 [59] of the same molecule?
A: 1.1 nM

Q: With `CO[C@H]1c2nc3c(nc2C[C@@H]2CC[C@H]4C5=C[C@@H]6O[C@]7(O[C@](C)(CO)C[C@H]7O)[C@@H](C)[C@]6(O)[C@@]5(C)[C@H](O)C[C@@H]4[C@]21C)C[C@@]1(C)[C@@H](CC[C@H]2C4=CC[C@@H]5[C@H](C)[C@@]6(OC[C@]45C(=O)C[C@@]21O)OC(C)(C)C[C@H]6O)C3` [CEPHALOSTATIN 10] as the molecule, how does the EC50 [60] read?
A: 3 ng/mL (≈ 3.13 nM)

Q: For `CO[C@H]1c2nc3c(nc2C[C@@H]2CC[C@H]4C5=CC[C@@H]6[C@@H](C)[C@]7(OC[C@]56C(=O)C[C@]4(O)[C@]21C)OC(C)(C)C[C@H]7O)C[C@@]1(C)[C@@H](CC[C@H]2C4=C[C@@H]5O[C@]6(O[C@](C)(CO)C[C@H]6O)[C@@H](C)[C@]5(O)[C@@]4(C)[C@H](O)C[C@@H]21)C3`, which EC50 [60] is on record?
A: 2.5 ng/mL (≈ 2.61 nM)
